# Patent publication US20200141935A1, “SYSTEM, METHOD, APPARATUS AND DIAGNOSTIC TEST FOR PREGNANCY” (BARCELONA INSTITUTE FOR GLOBAL HEALTH, priority 2017, published 2020)
# Test system: P. falciparum
# Experiment: Prevalence of infection by qPCR at delivery by intermittent preventive treatment group
# Type: in vivo, pregnant women
# Settings: for PCR prevalence of infection (%): by IPTp group
# Protocol: All women included in the study received bed nets treated with long-lasting insecticide. At delivery, HIV serostatus was assessed using a rapid diagnostic test and hemoglobin was determined in capillary blood sample using mobile devices (HemoCue, Hemocontrol and Sysmex KX analyzer). Tissue samples from the maternal side of the placenta, as well as maternal peripheral-, placental-blood samples were collected at delivery. Dried blood spots onto filter paper were prepared (50 ul) and blood was collected into EDTA vacutainers and centrifuged, with the plasma stored at −20° C. […] Clinical malaria episodes were treated according to national guidelines at the time of the study. Biases due to pooling of data from these two clinical trials were minimized by the use of similar protocols and procedures during the two trials. […] P. falciparum infection at delivery was defined if peripheral or placental blood samples were positive by microscopy or qPCR or if histology positive (active or chronic). Infection during pregnancy was defined if peripheral or placental blood samples were positive by microscopy or qPCR at any time-point of collection, if P. falciparum detected by hospital passive case detection (PCD), or if histology positive (active, chronic or past) on the sub-set of women from longitudinal cohort. Seroprevalences between countries (Benin, Gabon and Mozambique for HIV-uninfected and Kenya and Mozambique for HIV-infected), between IPTp intervention group (MQ vs SP for HIV-uninfected and MQ vs Placebo for HIV infected) and anemia status were compared by logistic regression models adjusted by parity, age and treatment.
# [1] = HIV uninfected, qPCR in peripheral and placental blood at delivery
Compound,"PCR MQ (OR) (HIV infected, MQ with Placebo as reference)","PCR prevalence of infection (%) (HIV infected, qPCR at delivery)",PCR prevalence of infection (%) [1],"PCR SP (OR) (HIV uninfected, SP with MQ as reference)"
"OC(c1cc(C(F)(F)F)nc2c(C(F)(F)F)cccc12)C1CCCCN1 (centres unmarked) [MQ, mefloquine]",0.24 (0.10; 0.59),2%,18%,
sulfadoxine-pyrimethamine [SP],,,27%,1.93 (1.28; 2.91)
